# Earlier results, collected in patent US10172811B2, “Topical antifungal composition for treating onychomycosis” (Polichem S.A., priority 2013, dated 2019).
# Key:
# onychomycosis [1] = settings: oral
# onychomycosis [2] = settings: topical nail formulation; 48 weeks daily treatment, 12-week follow up
Compound,"Complete cure, proportion of patients (onychomycosis [1]) [%]",Complete cure (onychomycosis [2]),Responders (onychomycosis [2]) [%]
CN(C/C=C/C#CC(C)(C)C)Cc1cccc2ccccc12 [terbinafine],38,,
Cc1cc(C2CCCCC2)n(O)c(=O)c1 [ciclopirox],,about 13%,~30
